Assay results as given in US8846633B2, “Method for inhibiting cancer stem cell like properties and chemoradioresistant properties of cancer or tumor cells with microRNA145” (Taipei Veterans General Hospital, priority 2011, dated 2014).

Columns and labels:
ALDH1+CD44+ HNC cells [1] = test: HNC-TIC orthotopic xenograft, tumor size; assay type: in vivo, nude mice; conditions: intra-tumoral lesion injection; five weeks after treatment; vs pLV or shLuc
Method: (§1) We further explored the therapeutic potential of miR145 in immunocompromised mice bearing HNC-TIC xenografted tumors. Nude mice that were orthotopically pre-injected with GFP-labeled ALDH1^+CD44^+ cells in the neck region were treated with miR145-overexpressing lentivirus (pLV-miR-145) and shSOX9+shADAM17 by intra-tumoral lesion injection. […] By monitoring the treated mice for up to 12 weeks, we observed that administration of pLV-miR145 or shSOX9+shADAM17 prolonged animal survival to a greater extent than did the LNA-miR145 treatment (FIG. 10B).

HNC cells [2] = test: sphere formation of HNC cells; assay type: cell-based, human; conditions: ALDH1+CD44+ cells; data not shown
Excerpt: (§2) To identified the miRNA(s) involved in the regulation of TIC properties in HNC-TICs, we evaluated and compared the miRNA expression profiles in 3 pairs of HNC populations (ALDH1^+ vs. ALDH1^−, CD44^+ vs. CD44^−, and sphere-forming vs. parental) derived from patient specimens. […] To further investigate whether miR145 plays a role in the identity of HNC-TICs, two patient sample-derived HNC cell lines (HNC-1 and HNC-2) and an immortalized HNC cell line (FaDu) were subjected to quantitative RT-PCR analysis to confirm that miR145 levels were low in ALDH1^+/CD44^+ and sphere-forming HNC cells but high in ALDH1^−/CD44^− and parental cells (FIG. 8A, left and middle). To evaluate the role of miR145 on cancer initiation, we knocked down miR145 in ALDH1^−CD44^− cells derived from HNC-1, HNC-2, and FaDu cells using an miRNA SPONGE strategy (FIG. 8A, right), and subjected these cells to functional and molecular analysis. As shown in FIGS. 8B-D, the sphere formation ability and the percentage of ALDH1^+ and CD44^+ cells was all elevated upon miR145 knockdown (Spg-miR145) as compared to the control (Spg-ctrl) cells. […]

ALDH1+CD44+ HNC cells [3] = test: tumor initiation of transfected ALDH1+CD44+ HNC cells; assay type: in vivo; conditions: ALDH1+CD44+ cells-transplanted grafts in NOD-SCID mice
HNC cells [4] = test: invasion of HNC cells; assay type: cell-based, human; conditions: ALDH1+CD44+ cells; data not shown
Excerpt: as §2

HNC cells [5] = test: percentage of ALDH1+ and CD44+ HNC cells; assay type: cell-based, human; conditions: data not shown
Excerpt: as §2

ALDH1+CD44+ HNC cells [6] = test: HNC-TIC orthotopic xenograft, survival; assay type: in vivo, nude mice; conditions: monitored up to 12 weeks
Method: as §1

Substance: shSOX9+shADAM17: lentiviral-based shRNAs for co-knockdown of SOX9 (SEQ ID NO: 28) and ADAM17 (SEQ ID NO: 29) (chain 1 GCGGAGGAAGTCGGTGAAGAA; chain 2 CCTATGTCGATGCTGAACAAA; the letters are possibly those of the target site)
- tumor size (ALDH1+CD44+ HNC cells [1]): dramatically reduced
- sphere-forming ability (HNC cells [2]): reduction
- tumor-initiating property (ALDH1+CD44+ HNC cells [3]): effectively inhibited
- invasive capacity (HNC cells [4]): reduced
- percentages of CD44+ and ALDH1+ cells (HNC cells [5]): reduced
- animal survival (ALDH1+CD44+ HNC cells [6]): prolonged
